These results are taken from PubChem BioAssay AID588613 (The Scripps Research Institute Molecular Screening Center, 2011).

The source made the active and inactive calls.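 The calls were made as follows: active = phosphorylated EGFR protein level at least 30% below or above the solvent-only control; inactive = the rest.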

Sequence of Epidermal growth factor receptor (Homo sapiens) (P00533 whole entry, looked up): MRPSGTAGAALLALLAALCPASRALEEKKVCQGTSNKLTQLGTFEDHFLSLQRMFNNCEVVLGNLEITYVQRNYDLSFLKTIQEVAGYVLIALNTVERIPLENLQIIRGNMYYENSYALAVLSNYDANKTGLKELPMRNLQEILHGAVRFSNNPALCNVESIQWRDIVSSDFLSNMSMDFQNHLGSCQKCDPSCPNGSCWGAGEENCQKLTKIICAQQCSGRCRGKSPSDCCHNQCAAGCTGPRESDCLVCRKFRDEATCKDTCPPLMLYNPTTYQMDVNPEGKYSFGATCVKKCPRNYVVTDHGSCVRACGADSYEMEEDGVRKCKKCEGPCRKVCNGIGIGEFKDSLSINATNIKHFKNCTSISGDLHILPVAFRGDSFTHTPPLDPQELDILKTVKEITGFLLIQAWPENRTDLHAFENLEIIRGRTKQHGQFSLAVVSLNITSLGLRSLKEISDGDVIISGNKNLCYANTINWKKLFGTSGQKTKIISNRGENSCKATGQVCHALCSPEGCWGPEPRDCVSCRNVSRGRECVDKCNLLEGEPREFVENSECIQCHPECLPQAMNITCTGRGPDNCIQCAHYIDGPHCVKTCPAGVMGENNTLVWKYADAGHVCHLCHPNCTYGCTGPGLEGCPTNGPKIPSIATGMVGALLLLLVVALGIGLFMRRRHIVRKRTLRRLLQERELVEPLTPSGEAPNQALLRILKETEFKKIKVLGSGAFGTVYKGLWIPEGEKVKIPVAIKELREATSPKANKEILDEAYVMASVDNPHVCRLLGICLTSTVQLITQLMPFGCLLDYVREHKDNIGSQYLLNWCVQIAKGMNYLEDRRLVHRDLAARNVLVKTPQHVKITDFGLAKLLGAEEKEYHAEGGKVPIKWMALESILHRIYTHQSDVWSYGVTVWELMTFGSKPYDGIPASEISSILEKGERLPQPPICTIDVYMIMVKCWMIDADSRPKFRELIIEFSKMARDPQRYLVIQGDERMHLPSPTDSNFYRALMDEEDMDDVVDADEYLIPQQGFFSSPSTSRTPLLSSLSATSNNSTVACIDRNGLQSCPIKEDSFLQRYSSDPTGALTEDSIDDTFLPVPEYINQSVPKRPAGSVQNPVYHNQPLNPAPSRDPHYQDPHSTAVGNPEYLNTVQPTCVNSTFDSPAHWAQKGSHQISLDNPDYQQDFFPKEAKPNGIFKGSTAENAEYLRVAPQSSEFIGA

The assay addresses Epidermal growth factor receptor (Homo sapiens) (UniProt P00533). Nature of the assay: p-EGFR protein level shift in DLD1 cells – cell-based, chemiluminescent western blot, powder samples, counter-screen for KLF5 inhibitor project, late-stage follow-up (AID 588613). Conditions: DLD-1 cells, phospho-EGFR western blot, 24 h; at 10 µM; active compounds read high. A general note: Immunoblotting shows a protein as a band on a membrane.
Regarding `CN(C(=O)CNC(=O)/C=C/c1cccc(Cl)c1)C1CCS(=O)(=O)CC1`, the inhibition was 46.8%. With `CN(C(=O)CNC(=O)/C=C/c1cccc(Cl)c1)C1CCS(=O)(=O)C1` (stereo not drawn) the figure was 60.7%. With `CN(C(=O)COC(=O)/C=C/c1cccc([N+](=O)[O-])c1)C1CCS(=O)(=O)C1` (stereo not drawn) the figure was 28.2% (inactive).

The inhibition is the drop in the measured response relative to a control, in per cent.
